Measurements reported in ChEMBL document CHEMBL2375319, “Design, synthesis and structure-activity relationships of 3,5-diaryl-1H-pyrazoles as inhibitors of arylamine N-acetyltransferase” (Bioorg Med Chem Lett, 2013).
Values after ≈ are worked out from the molar mass of the structure shown.

Test system: Mycobacterium tuberculosis
Experiment: Antimycobacterial activity against Mycobacterium bovis BCG after 28 days
Assay type: functional
Settings: variant bovis BCG, 672 h

In the case of `COc1ccc(-c2cc(-c3cc(OC)ccc3O)[nH]n2)cc1`, the MIC is reported as 34 µM (≈ 10.1 µg/mL).
